Assay results taken from ChEMBL document CHEMBL3585308, “Discovery and Modification of in Vivo Active Nrf2 Activators with 1,2,4-Oxadiazole Core: Hits Identification and Structure-Activity Relationship Study” (J Med Chem, 2015).
Converted amounts (≈) assume the structure as drawn. Blank lines part the entries; values can stand above or below the molecule they belong to. The source made the active and inactive calls. No cut-off for these calls is given here.

Columns and labels:
Mus musculus [1] = assay: Antiinflammatory activity in C57BL/6 mouse assessed as prevention of LPS-induced morphological changes in lung at 10 to 80 mg/kg/day, ip pretreated for 48 hrs followed by LPS challenge measured after 5 hrs; format: functional, organism-based
[2] = target: T1, Nuclear factor erythroid 2-related factor 2 (Homo sapiens) (UniProt Q16236); assay: Activation of Nrf2 in human HCT116 cells assessed as upregulation of HO-1 gene expression at 20 uM after 8 hrs by qRT-PCR analysis in presence of siRNA relative to siRNA nontreated control; format: cell-based; conditions: HCT-116
T1 sequence (whole entry): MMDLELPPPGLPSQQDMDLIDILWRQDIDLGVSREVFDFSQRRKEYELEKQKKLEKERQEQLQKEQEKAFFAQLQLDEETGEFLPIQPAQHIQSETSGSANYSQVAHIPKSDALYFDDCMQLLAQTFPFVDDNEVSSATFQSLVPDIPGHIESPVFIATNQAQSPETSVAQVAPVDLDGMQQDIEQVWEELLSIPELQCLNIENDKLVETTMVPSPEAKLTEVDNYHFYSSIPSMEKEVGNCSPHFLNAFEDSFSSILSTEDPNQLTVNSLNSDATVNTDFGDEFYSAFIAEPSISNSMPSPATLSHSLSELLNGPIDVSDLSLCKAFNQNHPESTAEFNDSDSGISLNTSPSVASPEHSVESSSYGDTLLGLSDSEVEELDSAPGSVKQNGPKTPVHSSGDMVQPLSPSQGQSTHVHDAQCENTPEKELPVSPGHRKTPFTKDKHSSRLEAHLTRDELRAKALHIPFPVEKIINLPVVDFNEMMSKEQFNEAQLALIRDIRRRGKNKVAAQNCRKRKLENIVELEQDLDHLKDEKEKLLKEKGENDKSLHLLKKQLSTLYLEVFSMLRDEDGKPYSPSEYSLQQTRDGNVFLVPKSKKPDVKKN

[3] = Lipophilicity, log D of the compound at pH 7.4 by potentiometric titration method; format: physicochemical; conditions: buffer
Mus musculus [4] = assay: Antiinflammatory activity in ip dosed C57BL/6 mouse assessed as inhibition of LPS-induced IL-6 expression in lung pretreated for 48 hrs followed by LPS challenge measured after 5 hrs by immunohistochemical analysis; format: functional, organism-based
Mus musculus [5] = assay: In vivo activation of Nrf2 in LPS-stimulated ip dosed C57BL/6 mouse lung pretreated for 48 hrs followed by LPS challenge measured after 5 hrs by Western blot analysis; format: functional, organism-based
[6] = Intrinsic aqueous solubility of the compound by potentiometric titration method; format: physicochemical; conditions: read-out: Intrinsic_solubility
[7] = target: T1, Nuclear factor erythroid 2-related factor 2 (Homo sapiens); assay: Activation of Nrf2 in human HCT116 cells measured at 4 hrs by qRT-PCR analysis; format: cell-based; conditions: HCT-116
[8] = target: T1, Nuclear factor erythroid 2-related factor 2 (Homo sapiens); assay: Activation of Nrf2 in human HCT116 cells assessed as upregulation of GCS expression at 10 uM after 1 hr by Western blot analysis; format: cell-based; conditions: HCT-116
Mus musculus [9] = assay: Antiinflammatory activity in ip dosed C57BL/6 mouse assessed as reduction of LPS-induced TNF-alpha level in serum pretreated for 48 hrs followed by LPS challenge measured after 5 hrs by ELISA relative to LPS-treated control; format: functional, organism-based
[10] = target: T1, Nuclear factor erythroid 2-related factor 2 (Homo sapiens); assay: Activation of Nrf2 in human HCT116 cells assessed as upregulation of HO-1 expression after 8 hrs by Western blot analysis; format: cell-based; conditions: HCT-116
[11] = target: T1, Nuclear factor erythroid 2-related factor 2 (Homo sapiens); assay: Activation of Nrf2 in human HCT116 cells assessed as upregulation of HO-1 gene expression measured at 4 hrs by qRT-PCR analysis; format: cell-based; conditions: HCT-116
[12] = target: T1, Nuclear factor erythroid 2-related factor 2 (Homo sapiens); assay: Induction of phosphorylated Nrf2 at S40 translocation from cytoplasm to nucleus in human HCT116 cells at 20 uM after 4 hrs by Western blot analysis; format: cell-based; conditions: HCT-116
[13] = target: T1, Nuclear factor erythroid 2-related factor 2 (Homo sapiens); assay: Activation of Nrf2 in human HCT116 cells assessed as upregulation of GCLM gene expression at 20 uM after 8 hrs by qRT-PCR analysis in presence of siRNA relative to siRNA nontreated control; format: cell-based; conditions: HCT-116
[14] = target: T1, Nuclear factor erythroid 2-related factor 2 (Homo sapiens); assay: Induction of Nrf2 translocation from cytoplasm to nucleus in human HCT116 cells at 20 uM after 4 hrs by Western blot analysis; format: cell-based; conditions: HCT-116
Mus musculus [15] = assay: Antiinflammatory activity in ip dosed C57BL/6 mouse assessed as reduction of LPS-induced IL-6 level in serum pretreated for 48 hrs followed by LPS challenge measured after 5 hrs by ELISA relative to LPS-treated control; format: functional, organism-based
[16] = target: T1, Nuclear factor erythroid 2-related factor 2 (Homo sapiens); assay: Induction of Nrf2 translocation from cytoplasm to nucleus in human HCT116 cells after 12 hrs by DyLight 488 and DAPI staining-based laser scanning confocal microscopic analysis; format: cell-based; conditions: HCT-116
[17] = target: T1, Nuclear factor erythroid 2-related factor 2 (Homo sapiens); assay: Induction of Nrf2 phosphorylation at S40 in cytoplasm of human HCT116 cells at 20 uM after 4 hrs by Western blot analysis; format: cell-based; conditions: HCT-116
[18] = target: T1, Nuclear factor erythroid 2-related factor 2 (Homo sapiens); assay: Activation of Nrf2 in human HCT116 cells assessed as upregulation of NQO1 expression after 8 hrs by Western blot analysis; format: cell-based; conditions: HCT-116
Mus musculus [19] = assay: Toxicity in C57BL/6 mouse assessed as effect on body weight at 10 to 80 mg/kg/day, ip measured after 3 days; format: organism-based; conditions: in vivo, 72 h
[20] = target: T1, Nuclear factor erythroid 2-related factor 2 (Homo sapiens); assay: Activation of Nrf2 in human HCT116 cells at 20 uM after 8 hrs by qRT-PCR analysis in presence of siRNA relative to siRNA nontreated control; format: cell-based; conditions: HCT-116
[21] = Permeability of the compound at pH 7.4 by PAMPA; format: physicochemical; conditions: read-out: permeability
HCT-116 = assay: Cytotoxicity against human HCT116 cells assessed as reduction of cell proliferation at 80 uM after 24 hrs by MTT assay; format: cell-based; conditions: hct-116, 24 h
[22] = target: T1, Nuclear factor erythroid 2-related factor 2 (Homo sapiens); assay: Activation of Nrf2 in human HCT116 cells assessed as upregulation of NQO1 gene expression measured at 4 hrs by qRT-PCR analysis; format: cell-based; conditions: HCT-116
Mus musculus [23] = assay: Antiinflammatory activity in ip dosed C57BL/6 mouse assessed as reduction of LPS-induced IL-12 level in serum pretreated for 48 hrs followed by LPS challenge measured after 5 hrs by ELISA relative to LPS-treated control; format: functional, organism-based
Mus musculus [24] = assay: In vivo activation of Nrf2 in LPS-stimulated C57BL/6 mouse lung at 10 to 80 mg/kg/day, ip pretreated for 48 hrs followed by LPS challenge measured after 5 hrs by DAPI staining-based laser scanning confocal microscopic analysis; format: functional, organism-based
[25] = target: T1, Nuclear factor erythroid 2-related factor 2 (Homo sapiens); assay: Activation of Nrf2 in human HepG2-ARE-C8 cells assessed as upregulation of ARE level after 12 hrs by luciferase reporter gene assay; format: cell-based
Mus musculus [26] = assay: Antiinflammatory activity in ip dosed C57BL/6 mouse assessed as reduction of LPS-induced IL-17 level in serum pretreated for 48 hrs followed by LPS challenge measured after 5 hrs by ELISA relative to LPS-treated control; format: functional, organism-based
[27] = target: T1, Nuclear factor erythroid 2-related factor 2 (Homo sapiens); assay: Activation of Nrf2 in human HCT116 cells assessed as upregulation of NQO1 gene expression at 20 uM after 8 hrs by qRT-PCR analysis in presence of siRNA relative to siRNA nontreated control; format: cell-based; conditions: HCT-116
[28] = target: T1, Nuclear factor erythroid 2-related factor 2 (Homo sapiens); assay: Activation of Nrf2 in human HCT116 cells assessed as upregulation of GCLM gene expression measured at 4 hrs by qRT-PCR analysis; format: cell-based; conditions: HCT-116
[29] = Dissociation constant, pKa of the compound by potentiometric titration method; format: physicochemical
Mus musculus [30] = assay: Antiinflammatory activity in ip dosed C57BL/6 mouse assessed as reduction of LPS-induced IFN-gamma level in serum pretreated for 48 hrs followed by LPS challenge measured after 5 hrs by ELISA relative to LPS-treated control; format: functional, organism-based
Mus musculus [31] = assay: Antiinflammatory activity in C57BL/6 mouse assessed as suppression of LPS-induced IL-6 expression in lung at 10 mg/kg/day pretreated for 48 hrs followed by LPS challenge measured after 5 hrs by immunohistochemical analysis; format: functional, organism-based
Mus musculus [32] = assay: Toxicity in C57BL/6 mouse assessed as effect on body weight at 10 mg/kg/day measured after 3 days; format: organism-based; conditions: in vivo, 72 h
Mus musculus [33] = assay: Antiinflammatory activity in C57BL/6 mouse assessed as reduction of LPS-induced IL-6 level in serum at 10 mg/kg/day pretreated for 48 hrs followed by LPS challenge measured after 5 hrs by ELISA; format: functional, organism-based
Mus musculus [34] = assay: In vivo activation of Nrf2 in LPS-stimulated C57BL/6 mouse lung at 10 mg/kg/day pretreated for 48 hrs followed by LPS challenge measured after 5 hrs by DAPI staining-based laser scanning confocal microscopic analysis; format: functional, organism-based
Mus musculus [35] = assay: Antiinflammatory activity in C57BL/6 mouse assessed as reduction of LPS-induced IL-17 level in serum at 10 mg/kg/day pretreated for 48 hrs followed by LPS challenge measured after 5 hrs by ELISA; format: functional, organism-based
Mus musculus [36] = assay: Antiinflammatory activity in C57BL/6 mouse assessed as reduction of LPS-induced IL-12 level in serum at 10 mg/kg/day pretreated for 48 hrs followed by LPS challenge measured after 5 hrs by ELISA; format: functional, organism-based
Mus musculus [37] = assay: Antiinflammatory activity in C57BL/6 mouse assessed as reduction of LPS-induced IFN-gamma level in serum at 10 mg/kg/day pretreated for 48 hrs followed by LPS challenge measured after 5 hrs by ELISA; format: functional, organism-based
Mus musculus [38] = assay: Antiinflammatory activity in C57BL/6 mouse assessed as prevention of LPS-induced morphological changes in lung at 10 mg/kg/day pretreated for 48 hrs followed by LPS challenge measured after 5 hrs; format: functional, organism-based
Mus musculus [39] = assay: Antiinflammatory activity in C57BL/6 mouse assessed as reduction of LPS-induced TNF-alpha level in serum at 10 mg/kg/day pretreated for 48 hrs followed by LPS challenge measured after 5 hrs by ELISA; format: functional, organism-based

Activity [2]: Active
logD [3]: 3.37
solubility [6]: 66.9 µM (≈ 18.7 µg/mL)
Activity [7]: Dose-dependent effect
Activity [8]: Active
Activity [10]: Dose-dependent effect
Activity [11]: Dose-dependent effect
Activity [12]: Active
Activity [13]: Active
Activity [14]: Active
Activity [16]: Dose-dependent effect
Activity [17]: Active
Activity [18]: Dose-dependent effect
Activity [20]: Active
Papp [21]: 19.6 ×10⁻⁶ cm/s
Activity [22]: Dose-dependent effect
Activity [25]: Dose-dependent effect
Activity [27]: Active
Activity [28]: Dose-dependent effect
pKa [29]: 3.57
SMILES: Fc1ccc(-c2nc(-c3ccc4nc[nH]c4c3)no2)cc1
Activity (Mus musculus [1]): Active
inhibition (Mus musculus [4]): Dose-dependent effect
Activity (Mus musculus [5]): Dose-dependent effect
Activity (Mus musculus [9]): Dose-dependent effect
Activity (Mus musculus [15]): Dose-dependent effect
Activity (Mus musculus [19]): Non-toxic
Activity (HCT-116): Non-toxic
Activity (Mus musculus [23]): Dose-dependent effect
Activity (Mus musculus [24]): Active
Activity (Mus musculus [26]): Dose-dependent effect
Activity (Mus musculus [30]): Dose-dependent effect

SMILES: C[C@@H]1C[C@H]2[C@@H]3CCC4=CC(=O)C=C[C@]4(C)[C@@]3(F)[C@@H](O)C[C@]2(C)[C@@]1(O)C(=O)CO [DEXAMETHASONE]
Activity (Mus musculus [31]): Active
Activity (Mus musculus [32]): Non-toxic
Activity (Mus musculus [33]): Active
Activity (Mus musculus [34]): Active
Activity (Mus musculus [35]): Active
Activity (Mus musculus [36]): Active
Activity (Mus musculus [37]): Active
Activity (Mus musculus [38]): Active
Activity (Mus musculus [39]): Active
